From ChEMBL document CHEMBL4627407, “Identification of a Potent Oridonin Analogue for Treatment of Triple-Negative Breast Cancer” (J Med Chem, 2020)
Active and inactive are the calls of the source. The calls are words filed in the database; no cut-off is given here.

Tests used:
HCC1806 [1] = assay: Antimigratory activity against human HCC1806 cells assessed as reduction in MMP2 expression at 50 to 200 nM after 48 hrs by Western blot analysis; format: functional, cell-based
HCC1806 [2] = assay: Induction of apoptosis in human HCC1806 cells assessed as late apoptotic cells at 50 uM after 48 hrs by Annexin V-FITC/propidium iodide double staining based flow cytometry (reference value: 0.81%); format: functional
HCC1806 [3] = assay: Antiproliferative activity against human HCC1806 cells after 72 hrs by MTT assay; format: functional, cell-based; conditions: HCC1806, 72 h
[4] = Inhibition of PI3K/Akt/mTOR signalling pathway in human HCC1806 cells assessed as reduction in phosphorylated mTOR expression at S2448 residue after 48 hrs by Western blot analysis; format: cell-based
HCC1806 [5] = assay: Induction of intracellular reactive oxygen species generation in human HCC1806 cells incubated for 48 hrs by DCFH2-DA staining based flow cytometeric analysis; format: functional, cell-based
HCC1806 [6] = assay: Antitumor activity against human HCC1806 cells xenografted in iv dosed ICR mouse assessed as reduction in tumor volume administered once per day for 23 consecutive days and measured every 2 days; format: functional, organism-based
HCC1806 [7] = assay: Antitumor activity against human HCC1806 cells in ICR mouse assessed as tumor shrinkage at 12.5 to 25 mg/kg, iv administered once per day for 23 consecutive days by TUNEL based immunohistochemical analysis; format: functional, organism-based
MDA-MB-453 = assay: Antiproliferative activity against human MDA-MB-453 cells after 72 hrs by MTT assay; format: functional, cell-based; conditions: MDA-MB-453, 72 h
HCC1806 [8] = assay: Induction of apoptosis in human HCC1806 cells assessed as viable cells at 200 uM after 48 hrs by Annexin V-FITC/propidium iodide double staining based flow cytometry (reference value: 95.7%); format: functional; conditions: HCC1806, 48 h, read-out: Activity
HCC1806 [9] = assay: Induction of apoptosis in human HCC1806 cells assessed as necrotic cells at 50 uM after 48 hrs by Annexin V-FITC/propidium iodide double staining based flow cytometry (reference value: 1.32%); format: functional
[10] = Toxicity in ICR mouse assessed as induction of morphological changes in spleen at 25 mg/kg, iv administered once per day for 23 consecutive days; format: organism-based; conditions: in vivo
HCC1806 [11] = assay: Suppression of FAK expression in human HCC1806 cells at 50 to 200 nM after 48 hrs by Western blot assay; format: functional, cell-based
HCC1806 [12] = assay: Induction of cell death in human HCC1806 cells at 200 nM incubated for 72 hrs in presence of caspase inhibitor z-VAD by MTT assay; format: functional, cell-based
NCI/ADR-RES = assay: Antiproliferative activity against human MCF7/ADR cells after 72 hrs by MTT assay; format: functional, cell-based
HCC1806 [13] = assay: Induction of apoptosis in human HCC1806 cells assessed as decrease in Bcl2 expression at >= 50 nM after 48 hrs by Western blot analysis; format: functional, cell-based
[14] = Inhibition of PI3K/Akt/mTOR signalling pathway in human HCC1806 cells assessed as reduction in phosphorylated Akt expression at S473 residue after 48 hrs by Western blot analysis; format: cell-based
HCC1806 [15] = assay: Inhibition of cell adhesion in human HCC1806 cells incubated for 48 hrs by phase contrast microscopy; format: functional, cell-based
HCC1806 [16] = assay: Antimigratory activity against human HCC1806 cells assessed as reduction in MMP9 expression at 50 to 200 nM after 48 hrs by Western blot analysis; format: functional, cell-based
HCC1806 [17] = assay: Induction of cell cycle arrest in human HCC1806 cells assessed as downregulation of cyclin B1 expression by western blot analysis; format: functional, cell-based
HCC1806 [18] = assay: Induction of cell cycle arrest in human HCC1806 cells assessed as accumulation at S phase at 200 nM after 48 hrs by propidium iodide staining based FACScan flow cytometry (reference value: 18.89%); format: functional
[19] = molecular target: Focal adhesion kinase 1 (Homo sapiens) (UniProt Q05397); assay: Inhibition of FAK phosphorylation at Tyr397 residue in human HCC1806 cells at 50 to 200 nM after 48 hrs by Western blot analysis; format: cell-based
Focal adhesion kinase 1 (Homo sapiens), sequence (Q05397 2-1052 limits assumed): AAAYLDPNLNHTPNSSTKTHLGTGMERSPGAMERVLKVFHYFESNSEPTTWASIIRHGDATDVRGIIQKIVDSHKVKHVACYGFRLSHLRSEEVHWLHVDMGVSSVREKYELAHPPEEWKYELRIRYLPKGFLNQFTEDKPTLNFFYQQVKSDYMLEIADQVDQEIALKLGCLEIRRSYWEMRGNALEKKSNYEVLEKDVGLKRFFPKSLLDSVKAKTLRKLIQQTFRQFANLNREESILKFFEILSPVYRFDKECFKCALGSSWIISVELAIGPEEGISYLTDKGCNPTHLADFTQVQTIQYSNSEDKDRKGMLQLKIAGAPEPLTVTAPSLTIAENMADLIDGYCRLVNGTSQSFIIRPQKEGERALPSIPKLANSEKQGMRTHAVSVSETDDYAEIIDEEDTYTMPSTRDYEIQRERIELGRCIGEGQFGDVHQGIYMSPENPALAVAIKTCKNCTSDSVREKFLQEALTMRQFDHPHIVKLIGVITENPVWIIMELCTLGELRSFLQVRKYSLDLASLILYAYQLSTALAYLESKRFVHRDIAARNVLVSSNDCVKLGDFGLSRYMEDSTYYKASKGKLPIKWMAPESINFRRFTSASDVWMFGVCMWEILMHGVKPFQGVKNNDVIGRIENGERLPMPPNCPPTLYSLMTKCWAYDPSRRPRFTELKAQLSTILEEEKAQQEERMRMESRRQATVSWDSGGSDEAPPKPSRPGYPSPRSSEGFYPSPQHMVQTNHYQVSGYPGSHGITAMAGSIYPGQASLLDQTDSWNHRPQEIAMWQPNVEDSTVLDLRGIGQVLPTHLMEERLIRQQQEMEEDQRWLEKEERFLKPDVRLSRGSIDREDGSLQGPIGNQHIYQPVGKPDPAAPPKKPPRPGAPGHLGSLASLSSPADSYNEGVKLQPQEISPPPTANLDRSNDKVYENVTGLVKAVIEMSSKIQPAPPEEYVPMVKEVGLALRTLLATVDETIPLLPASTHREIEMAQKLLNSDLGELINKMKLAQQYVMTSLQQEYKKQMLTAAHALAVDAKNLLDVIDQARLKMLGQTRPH

HCC1806 [20] = assay: Induction of cell cycle arrest in human HCC1806 cells assessed as accumulation at S phase at 100 nM after 48 hrs by propidium iodide staining based FACScan flow cytometry (reference value: 18.89%); format: functional
HCC1806 [21] = assay: Induction of cell cycle arrest in human HCC1806 cells assessed as accumulation at G1 phase at 200 nM after 48 hrs by propidium iodide staining based FACScan flow cytometry (reference value: 70.74%); format: functional
HCC1806 [22] = assay: Induction of apoptosis in human HCC1806 cells assessed as necrotic cells at 200 uM after 48 hrs by Annexin V-FITC/propidium iodide double staining based flow cytometry (reference value: 1.32%); format: functional
HCC1806 [23] = assay: Induction of apoptosis in human HCC1806 cells assessed as late apoptotic cells at 200 uM after 48 hrs by Annexin V-FITC/propidium iodide double staining based flow cytometry (reference value: 0.81%); format: functional
HCC1806 [24] = assay: Antimigratory activity against human HCC1806 cells measured up to 48 hrs by phase contrast microscopic based scratch wound healing assay; format: functional, cell-based
HCC1937 = assay: Antiproliferative activity against human HCC1937 cells after 72 hrs by MTT assay; format: functional, cell-based; conditions: HCC1937, 72 h
HCC1806 [25] = assay: Induction of cell cycle arrest in human HCC1806 cells assessed as accumulation at G2/M phase at 200 nM after 48 hrs by propidium iodide staining based FACScan flow cytometry (reference value: 10.38%); format: functional
HCC1806 [26] = assay: Antimigratory activity in human HCC1806 cells assessed as reduction in EGFR expression at 50 to 200 nM after 48 hrs by Western blot analysis; format: functional, cell-based
HCC1806 [27] = assay: Induction of cell death in human HCC1806 cells at 200 nM incubated for 72 hrs in presence of necroptosis inhibitor necrostatin-1 by MTT assay; format: functional, cell-based
[28] = Toxicity in ICR mouse assessed as induction of morphological changes in liver at 25 mg/kg, iv administered once per day for 23 consecutive days; format: organism-based; conditions: in vivo
MDA-MB-468 = assay: Antiproliferative activity against human MDA-MB-468 cells after 72 hrs by MTT assay; format: functional, cell-based; conditions: MDA-MB-468, 72 h
HCC1806 [29] = assay: Induction of apoptosis in human HCC1806 cells assessed as increase in Bad expression at 50 to 200 nM after 48 hrs by Western blot analysis; format: functional, cell-based
HCC1806 [30] = assay: Induction of cell cycle arrest in human HCC1806 cells assessed as accumulation at S phase at 50 nM after 48 hrs by propidium iodide staining based FACScan flow cytometry (reference value: 18.89%); format: functional
HCC1806 [31] = assay: Induction of cell cycle arrest in human HCC1806 cells assessed as accumulation at G2/M phase at 100 nM after 48 hrs by propidium iodide staining based FACScan flow cytometry (reference value: 10.38%); format: functional
HCC1806 [32] = assay: Induction of apoptosis in human HCC1806 cells assessed as late apoptotic cells at 100 uM after 48 hrs by Annexin V-FITC/propidium iodide double staining based flow cytometry (reference value: 0.81%); format: functional
HCC1806 [33] = assay: Antitumor activity against human HCC1806 cells in ICR mouse assessed as reduction in tumor weight at 25 mg/kg, iv administered once per day for 23 consecutive days and measured every 2 days relative to control; format: functional; parameters: scale not given: the % may be the effect or the level left

With `C=C1C(=O)[C@@]23C(=O)[C@@H]4OC[C@]5(C=CCC(C)(C)[C@@H]45)[C@@H]2CC[C@@H]1[C@H]3OC(=O)/C=C/c1ccncc1` the Activity (HCC1806 [1]) was “Active”, the Activity (HCC1806 [2]) was 2.43% and the IC50 (HCC1806 [3]) was 0.18 µM. The inhibition [4] was “Dose-dependent effect”, the Activity (HCC1806 [5]) was “Dose-dependent effect” and the Activity (HCC1806 [6]) was “Dose-dependent effect”. For the same molecule, the Activity (HCC1806 [7]) was “Active”, the IC50 (MDA-MB-453) was 0.33 µM and the viability at 200 µM (HCC1806 [8]) was 50.4%. The Activity (HCC1806 [9]) was 0.46%, the Activity [10] was “Non-Toxic” and the inhibition (HCC1806 [11]) was “inactive”. For the same molecule, the Activity (HCC1806 [12]) was “inactive”, the IC50 (NCI/ADR-RES) was 1.38 µM and the Activity (HCC1806 [13]) was “Active”. For the same molecule, the inhibition [14] was “Dose-dependent effect”, the inhibition (HCC1806 [15]) was “Dose-dependent effect” and the Activity (HCC1806 [16]) was “Active”. The Activity (HCC1806 [17]) was “Dose-dependent effect”, the Activity (HCC1806 [18]) was 20.74% and the inhibition [19] was “Active”. It also gave an Activity (HCC1806 [20]) of 19.13%, an Activity (HCC1806 [21]) of 54.97% and an Activity (HCC1806 [22]) of 4.32%. For the same molecule, the Activity (HCC1806 [23]) was 22.79%, the Activity (HCC1806 [24]) was “Dose-dependent effect” and the IC50 (HCC1937) was 0.28 µM. The Activity (HCC1806 [25]) was 24.28%, the Activity (HCC1806 [26]) was “Active” and the Activity (HCC1806 [27]) was “Active”. The Activity [28] was “Non-Toxic”, the IC50 (MDA-MB-468) was 0.45 µM and the Activity (HCC1806 [29]) was “Active”. For the same molecule, the Activity (HCC1806 [30]) was 18.24%, the Activity (HCC1806 [31]) was 20.26% and the Activity (HCC1806 [32]) was 3.61%. It also gave an Activity (HCC1806 [33]) of 74.1%.
